Laboratory results as given in publication PMC9909137 (Archives of Virology, 2023).
Like-named read-outs stand apart in the source and are kept apart here.

Assays:
[1] = test system: A/teal/Egypt/MB.D125OP/2015 (H7N3, 125OP); assay: organism not typed; type: cell-based, avian influenza H7N3 virus; conditions: MDCK, 72 h, read-out: IC50 125OP
[2] = test system: A/teal/Egypt/MB.D128OP/2015 (H7N3, 128OP); assay: organism not typed; type: cell-based, avian influenza H7N3 virus; conditions: read-out: IC50 128OP
[3] = test system: A/teal/Egypt/MB.D487OP/2016 (H7N3, 487OP); assay: organism not typed; type: cell-based, avian influenza H7N3 virus; conditions: MDCK, 72 h, read-out: IC50 487OP
[4] = test system: A/northern shoveler/Egypt/MB.D690OP/2016 (H7N3, 690OP); assay: organism not typed; type: cell-based, avian influenza H7N3 virus; conditions: MDCK, 72 h, read-out: IC50 690OP
[5] = test system: A/Puerto Rico/8/34 (H1N1); assay: microbe, parasite or virus in culture; type: cell-based; conditions: Influenza A virus, H1N1, MDCK, 72 h, read-out: IC50 H1N1
[6] = in vitro; conditions: dog
[7] = test system: Madin-Darby canine kidney (MDCK) cells; conditions: dog

Row | SMILES | IC50 [1] | IC50 ([2]; MDCK, 72 h) | IC50 [3] | IC50 [4] | IC50 [5] | CC50 [6] | IC50 [2] | CC50 [7]
1 | CC(=O)N[C@H]1[C@H]([C@H](O)[C@H](O)CO)OC(C(=O)O)=C[C@@H]1N=C(N)N [Zanamivir, zanamivir] | 17.1 µM | 85 µM | 14.1 µM | 23.3 µM | 180 µM | 1110 µM | – | –
2 | NC(=O)c1nc(F)c[nH]c1=O [Favipiravir, favipiravir] | 3.9 µM | 6.02 µM | 5.4 µM | 4.5 µM | 57.7 µM | 1250 µM | 6.02 µM | –
3 | NC12CC3CC(CC(C3)C1)C2 [Amantadine, amantadine] | 17 µM | 45.2 µM | 5.17 µM | 6.5 µM | 77.3 µM | 584 µM | – | –
4 | CCC(CC)COC(=O)[C@H](C)N[P@](=O)(OC[C@H]1O[C@@](C#N)(c2ccc3c(N)ncnn23)[C@H](O)[C@@H]1O)Oc1ccccc1 [Remdesivir, remdesivir] | 44.5 µM | 26 µM | 19.1 µM | 41.6 µM | 140 µM | – | – | 997 µM
5 | CCOC(=O)C1=C[C@@H](OC(CC)CC)[C@H](NC(C)=O)[C@@H](N)C1 [Oseltamivir, oseltamivir] | 408 µM | 85.7 µM | 15.7 µM | 6.46 µM | 51.2 µM | 516 µM | – | –
